Source: article PMC12715805, “Screening apelin analogues and a small molecule agonist as effective cardiovascular therapeutics against reperfusion injury” (RSC Medicinal Chemistry, 2025)

Assays:
[1] = target: T1, human apelinR (Homo sapiens, UniProt P35414); test: ApelinR radioligand binding experiment (competition with [125I]-(Nle11,Tyr13) apelin-13); conditions: Fig. 1; membranes of CHO cells stably expressing hApelinR; 0.2 nM [125I]-(Nle11,Tyr13) apelin-13; 3 h at 20 °C; n = 4 to 6 independent experiments in duplicate; read-out: Binding affinity IC50 ± SEM
T1 construct: expressed in transfected cells; crude membrane preparations
T1 sequence (P35414 1-380): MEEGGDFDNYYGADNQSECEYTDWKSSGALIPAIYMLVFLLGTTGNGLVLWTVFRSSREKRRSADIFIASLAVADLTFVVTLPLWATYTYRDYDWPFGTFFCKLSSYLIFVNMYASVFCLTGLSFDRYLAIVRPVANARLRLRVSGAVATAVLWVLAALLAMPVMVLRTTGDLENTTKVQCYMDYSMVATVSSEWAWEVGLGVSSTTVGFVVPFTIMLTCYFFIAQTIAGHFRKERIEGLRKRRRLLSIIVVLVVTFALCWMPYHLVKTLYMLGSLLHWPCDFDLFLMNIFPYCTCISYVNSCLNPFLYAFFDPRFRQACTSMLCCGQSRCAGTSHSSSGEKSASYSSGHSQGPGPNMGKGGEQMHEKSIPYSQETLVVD
Description: Graphic is the compilation of n independent experiments performed in duplicate (n from 4 to 6). Error bars represent the SD of 4 to 6 independent experiments.
The reaction was stopped with cold 10 mM Hepes pH 7.5, 1 mM MgCl2 buffer and filtered on Whatman GF/C filters. After washing the filters, radioactivity was measured using a Wallac gamma counter.
APJ receptor agonist IC50 (nM)
Competition binding curves of different apelin receptor ligands. Membranes of CHO cells stably expressing the
concentrations of each ligand (from 1 pM to 10 µM).
in the absence of any unlabeled ligand. Graphic is a compilation of 4 independent experiments performed in duplicate.

[2] = test system: wild-type male mice (C57BL/6); test: Blood pressure lowering assay in anesthetized mice; assay type: in vivo, mouse; conditions: 0.5 μmol kg^−1 infusion during 5 min via jugular vein; anesthetized wild-type male C57BL/6 mice; compared to vehicle control
Description: The metabolically stable apelin analogues from each isoform, CbzPEG6–NMeLeu17A2 and NMeLeu13A2 along with the small molecule agonist, BMS-986224 (0.5 μmol kg^−1 infusion during 5 min for each compound), were tested for their BP lowering activity in anesthetized wild-type male mice (C57BL/6, 24–30 g). […] In contrast, the hypotensive effect of CbzPEG6–NMeLeu17A2 was observed immediately after infusion. This analogue reduced mean arterial pressure (MAP) by approximately 50% during the experiment, with the effect sustained for more than 30 minutes post-administration. Apelin can act on the endothelial layer of vasculature, leading to systemic changes in blood pressure by increasing the synthesis of nitric oxide (NO).[5] The effect of CbzPEG6–NMeLeu17A2 on […], which decreases the […] resistance by increasing eNOS activation and NO production through the activation of the PI3K/Akt signalling pathway on endothelial cells like other apelin analogues we tested in the previous studies.[5,11]
The blood pressure measurement and apelin injection method has been described in our previous research.[43] During the blood pressure testing, mice aged 12–14 weeks were anesthetized with 1.5% isoflurane in oxygen and monitored throughout the experiment. The blood pressure was measured using a PV loop catheter (model 1.2F, Transonic) […] into the left carotid artery. The monitor system (LabScribe 2.0. Scisense) recorded aortic blood pressure and heart rate. After a 20-minute baseline measurement, CbzPEG6–NMeLeu17A2, NMeLeu13A2, RI13, RI13A2, RI17, RI17A2, and BMS-986224 (0.5 μmol […] body weight) were diluted in saline and consistently infused for 5 min via the right jugular vein. For BMS-986224, 0.1% DMSO was added to saline to help with dilution. Blood pressure was continuously recorded for 60 minutes post-infusion.
3. Effects of APJ agonists on blood pressure
Figure S3. Different effects of apelin analog and receptor agonist on blood pressure and ischemia-reperfusion injury. A) the effect of CbzPEG6–NMeLeu17A2 (n=3) on mean arterial blood pressure (MAP), B) the effect of apelin 13 analog, NMeLeu13A2, on MAP (n=4). The effect of apelin 13 analog reverse enantiomers, C) RI13 (n=4) and D) RI13A2 (n=4), on MAP. The effect of apelin 17 reverse enantiomers, E) RI17 (n=4) and F) RI17A2 (n=4) on MAP. G) The effect of small molecule apelin receptor agonist BMS-986224 on blood pressure (n=4). The MAP recording between 50 and 60 minutes has been averaged and compared with their controls (placebo (n=4)). The vehicle for BMS-986224 is 0.1% DMSO (n=3). The arrow indicates the time when analogs were introduced. Values mean ±SEM and ****P<0.0001, compared to the control group.
(1 picture or pasted object on this page, not shown here)

[3] = test system: isolated mouse heart (ischemia–reperfusion injury); test: Ex vivo Langendorff heart perfusion with ischemia–reperfusion; conditions: 1 μM in perfusion buffer for first 10 min of reperfusion after 30 min ischemia; compared to placebo; one-way ANOVA, Dunnett
[4] = target: T2, apelinR / human Gαi1 (Homo sapiens, UniProt P35414); test: ebBRET Gαi1 activation; assay type: cell-based; conditions: HEK293 cells transfected with apelinR, human Gαi1, Rap1GAP-RlucII, rGFP-CAAX; 10 min at 37 °C; mean ± SEM of 5 to 6 independent experiments; read-out: Gαi1 activation log EC50 (converted)
T2 sequence (P35414 1-380): T1 sequence (P35414 1-380)

[5] = target: T3, apelinR / human Gαi2 (Homo sapiens, UniProt P35414); test: ebBRET Gαi2 activation; assay type: cell-based; conditions: HEK293 cells transfected with apelinR, human Gαi2, Rap1GAP-RlucII, rGFP-CAAX; 10 min at 37 °C; mean ± SEM of 5 to 6 independent experiments; read-out: Gαi2 activation log EC50 (converted)
T3 sequence (P35414 1-380): T1 sequence (P35414 1-380)

[6] = target: T4, apelinR / β-arrestin1 (Homo sapiens, UniProt P35414); test: ebBRET β-arrestin1 recruitment; assay type: cell-based; conditions: HEK293 cells transfected with apelinR, β-arrestin1-RlucII, rGFP-CAAX; 10 min at 37 °C; mean ± SEM of 5 to 6 independent experiments; read-out: β-arr1 recruitment log EC50 (converted)
T4 sequence (P35414 1-380): T1 sequence (P35414 1-380)

[7] = target: T5, apelinR / β-arrestin2 (Homo sapiens, UniProt P35414); test: ebBRET β-arrestin2 recruitment; assay type: cell-based; conditions: HEK293 cells transfected with apelinR, β-arrestin2-RlucII, rGFP-CAAX; 10 min at 37 °C; mean ± SEM of 5 to 6 independent experiments; read-out: β-arr2 recruitment log EC50 (converted)
T5 sequence (P35414 1-380): T1 sequence (P35414 1-380)

[8] = target: apelinR; design: method as in PMID 33663236; conditions: cited from earlier work
[9] = test system: rats; conditions: cited from earlier work
From the text: Another avenue being investigated is the use of small molecule as agonists for the apelinR, such as, Bristol Myers Squibb's BMS-986224,[26,27] Amgen's AMG986,[28] and Davenport's CMF-019.[29] […] In contrast, the two non peptidic apelinR agonists, BMS-98622 ...

[10] = G-protein-biased agonists; cited from earlier work
From the text: The therapeutic potential of biased and unbiased agonists for the apelinR remains an area of active investigation, particularly regarding their effects on BP regulation. […] In contrast, the two non peptidic apelinR agonists, BMS-98622 ...

SMILES | IC50 [1] | hypotensive effect (BP lowering activity, in words) [2] | cardioprotective effect / cardiac function recovery after ischemia–reperfusion (LVDP, RPP, max dP/dt, min dP/dt; in words) [3] | EC50 [4] | EC50 [5] | EC50 [6] | EC50 [7] | Kd [8] | change in BP in a myocardial infarction (MI) rat model and a hypertension-induced cardiac dysfunction rat model (in words) ([9]; MI rat model, hypertension-induced cardiac dysfunction rat model) | BP in anesthetized normotensive rats (in words) ([9]; anesthetized normotensive rats, at the beginning of the infusion) | cardiac effects and blood pressure in a rat pressure–volume loop model (in words) ([9]; rat pressure–volume loop model) | vasodilation (in words) [10]
CCOCc1nc(O)c(-c2nnc(Cc3ccc(Cl)cn3)o2)c(O)c1-c1c(OC)cccc1OC [BMS-986224, reference compound] | 16.4 ± 5.42 nM | no hypotensive effect | failed to show significance in cardiac function recovery | 0.102 nM | 0.11 nM | 10.7 nM | 8.91 nM | 0.3 nM | do not induce any change in BP | slight but significant decrease in BP | positive cardiac effects without significantly lowering blood pressure | –
CCC(CC)n1c(Cc2cccs2)nc2cc(C(=O)N[C@H](CC(=O)O)CC(C)C)ccc21 [CMF-019] | – | – | – | – | – | – | – | – | – | – | – | demonstrated vasodilation
